Test results reported in patent publication US10072055B2, “Anti-inflammatory pharmaceutical products” (Resother Pharma APS, priority 2011, dated 2018).
Entries after “also recorded” stand apart in the source; their conditions may differ. Ends that are not written are not given here.

Key:
[1] = molecular target: T1, PR3 (Homo sapiens, UniProt P24158); assay: In vitro degradation/digest in the presence of PR3; type: in vitro ADME
T1 sequence (P24158 28-248 limits assumed): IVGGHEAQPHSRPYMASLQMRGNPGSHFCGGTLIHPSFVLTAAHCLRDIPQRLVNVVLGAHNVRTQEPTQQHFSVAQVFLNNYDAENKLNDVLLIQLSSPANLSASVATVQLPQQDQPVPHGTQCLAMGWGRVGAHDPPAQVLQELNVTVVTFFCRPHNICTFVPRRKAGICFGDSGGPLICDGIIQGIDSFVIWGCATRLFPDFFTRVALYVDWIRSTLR
Protocol: FIG. 8 is a logarithmic plot of the degradation over time of three polypeptides of the present disclosure, UGP022 (SEQ ID NO: 5), UGP025 (SEQ ID NO: 7) and UGP026 (SEQ ID NO: 8) in the presence of PR3, a protease implicated in the in vivo cleavage of Annexin 1.
(§1) In an attempt to improve the potency and increase the half-life of the UGP022 peptide of the present disclosure (SEQ ID NO: 5), a series of in vitro PR3 and FINE digests were conducted. […] This cleavage site is not believed to have been identified in the literature.
(§2) Degradation tests of three polypeptides of the present disclosure, UGP022 (SEQ ID NO:5), UGP025 (SEQ ID NO:7) and UGP026 (SEQ ID NO:8) in the presence of PR3, a protease implicated in the in vivo cleavage of Annexin 1, indicated better stability for polypeptides with Leucine substitution at position 24 relative to a polypeptide lacking that feature. Position 24 corresponds to position 25 of Annexin 1 because all tested polypeptides lack the methionine at position 1 of natural Annexin. A 47-residue polypeptide outperformed an otherwise identical 49-residue polypeptide. Similar results were obtained in degradation tests in the presence of FINE.
(§3) FIG. 8 is a logarithmic plot of the degradation over time of three polypeptides of the present disclosure, UGP022 (SEQ ID NO:5), UGP025 (SEQ ID NO:7) and UGP026 (SEQ ID NO:8) in the presence of PR3, a protease implicated in the in vivo cleavage of Annexin 1. […] Also, a 47-residue polypeptide amidated at its C-terminus outperformed an otherwise identical 49-residue polypeptide amidated at its C-terminus.

[2] = molecular target: T2, HNE (Homo sapiens, UniProt P08246); assay: In vitro degradation/digest in the presence of HNE; type: in vitro ADME
T2 sequence (P08246 30-267): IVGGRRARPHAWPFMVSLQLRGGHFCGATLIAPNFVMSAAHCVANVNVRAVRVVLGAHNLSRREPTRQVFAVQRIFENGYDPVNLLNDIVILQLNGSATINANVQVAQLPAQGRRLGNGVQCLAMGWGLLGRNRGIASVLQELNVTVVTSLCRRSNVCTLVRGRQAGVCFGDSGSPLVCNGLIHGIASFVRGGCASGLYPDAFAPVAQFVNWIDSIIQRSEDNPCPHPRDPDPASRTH
Protocol: FIG. 9 is a logarithmic plot of the degradation over time of three polypeptides of the present disclosure, UGP022 (SEQ ID NO: 5), UGP025 (SEQ ID NO: 7) and UGP026 (SEQ ID NO: 8) in the presence of HNE, a protease implicated in the in vivo cleavage of Annexin 1.
as §1, §2
as §3, with “FIG. 9” for “FIG. 8”, “of […],” for “of PR3,”

[3] = test system: leukocyte recruitment into the inflamed airpouch; assay: Mouse IL-1β air-pouch inflammation model (leukocyte migration); type: in vivo; conditions: mouse air-pouch
Protocol: FIG. 3A and FIG. 3B are a series of bar charts comparing the anti-inflammatory effects of three polypeptides (Pep57 (SEQ ID NO:12); Pep59 (SEQ ID NO:13) and Pep84 (SEQ ID NO:14)) of the present disclosure versus a vehicle-only control.
FIG. 3A and FIG. 3B are a series of bar charts comparing the anti-inflammatory effects of three polypeptides (Pep57 (SEQ ID NO: 12); Pep59 (SEQ ID NO: 13) and Pep84 (SEQ ID NO: 14)) of the present disclosure versus a vehicle-only control. Mice received 200 μl i.v. of saline+DMSO or a dose of 50 μg per animal of one of the three Ac2-26 derived peptides, immediately before the local injection of mouse IL-1β into 6-day-old airpouches. The extent of cell migration was determined 4 h later, following airpouch washing and staining of migrated cells with Gr1 marker. […] Data are mean±SEM of 5 mice per group. *P<0.05 vs. vehicle group (one way ANOVA).

[4] = molecular target: T3, FPR1 (Homo sapiens, UniProt P21462); assay: FPR1 activation (ERK phosphorylation and intracellular calcium fluxes); type: cell-based
T3 sequence (P21462 1-350): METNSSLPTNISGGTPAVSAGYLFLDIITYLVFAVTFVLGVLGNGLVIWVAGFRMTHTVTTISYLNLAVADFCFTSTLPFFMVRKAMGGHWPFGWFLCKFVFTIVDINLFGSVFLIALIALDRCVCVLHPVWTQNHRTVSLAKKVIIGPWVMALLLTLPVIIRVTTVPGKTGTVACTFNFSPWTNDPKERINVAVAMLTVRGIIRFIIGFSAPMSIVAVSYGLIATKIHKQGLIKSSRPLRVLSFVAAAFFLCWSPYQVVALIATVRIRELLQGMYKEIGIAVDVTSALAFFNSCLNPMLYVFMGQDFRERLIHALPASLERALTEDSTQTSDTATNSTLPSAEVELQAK

[5] = molecular target: T4, FPR2 (Homo sapiens, UniProt P25090); assay: FPR2 activation (ERK phosphorylation and intracellular calcium fluxes); type: cell-based
T4 sequence (P25090 1-351): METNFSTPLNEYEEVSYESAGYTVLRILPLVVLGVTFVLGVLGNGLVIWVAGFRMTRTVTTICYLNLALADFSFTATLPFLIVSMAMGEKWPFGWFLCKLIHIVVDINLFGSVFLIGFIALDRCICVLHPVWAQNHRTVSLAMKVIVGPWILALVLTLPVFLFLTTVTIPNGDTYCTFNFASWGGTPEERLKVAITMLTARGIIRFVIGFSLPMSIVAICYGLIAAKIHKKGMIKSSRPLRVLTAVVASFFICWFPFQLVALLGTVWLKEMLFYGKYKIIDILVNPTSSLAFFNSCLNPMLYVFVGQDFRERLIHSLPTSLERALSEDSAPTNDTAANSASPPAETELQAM

[6] = test system: inflamed microcirculation; assay: Inflamed microcirculation in vivo; parameters: species or system murine

| Substance | stability / resistance to PR3 degradation [1] | stability / resistance to HNE degradation [2] | inhibition of leukocyte infiltration/recruitment in air-pouch model [3] | cleavage sites by PR3 ([1]; in vitro digest) | cleavage sites by HNE ([2]; in vitro digest) | activation of FPR1 [4] | activation of FPR2 [5] | anti-inflammatory properties in the inflamed microcirculation [6] |
| --- | --- | --- | --- | --- | --- | --- | --- | --- |
| AMVSEFLKQAWFIENEEQEYVQTLKSSKGGPGSAVSPYPTFNPSSDV-NH2 [UGP025, Leu25-ANXA1(2-48)-NH2] | more resistant to PR3 and FINE than the UGP022 peptide | more resistant to PR3 and FINE than the UGP022 peptide | – | – | – | – | – | – |
| AMVSEFLKQAWFIENEEQEYVQTLKSSKGGPGSAVSPYPTFNPSSDVAA-NH2 [UGP026, Leu25-ANXA1(2-50)-NH2] | more resistant to PR3 and FINE than the UGP022 peptide | more resistant to PR3 and FINE than the UGP022 peptide | – | – | – | – | – | – |
| AMVSEFLKQAWFIENEEQEYVQTVKSSKGGPGSAVSPYPTFNPSSDVAA-NH2 [UGP022, ANXA1(2-50)-NH2] | – | – | more potent than either the UGP021 peptide; also recorded: the more potent at inhibiting leukocyte recruitment into the inflamed airpouch | Ala 10 (Ala11 relative to Annexin 1) and Val 21 (Val22 relative to Annexin 1); also recorded: Val 24 (Val25 relative to Annexin 1) | Ala 10 (Ala11 relative to Annexin 1) and Val 21 (Val22 relative to Annexin 1); also recorded: Val 35 (Val36 relative to Annexin 1) was only cleaved by FINE; also recorded: Val 24 (Val25 relative to Annexin 1) | could activate both FPR1 and FPR2 | could activate both FPR1 and FPR2 | potency equivalent to human recombinant Annexin A1 |
